Measurements taken from publication PMC6707612, “Cyclic-di-GMP binds to histidine kinase RavS to control RavS-RavR phosphotransfer and regulates the bacterial lifestyle transition between virulence and swimming” (PLoS Pathogens, 2019).

What was measured:
Experiment in all cases: microscale thermophoresis (MST) binding
DHp-CA domain of RavS = DHp-CA domain of RavS (Xanthomonas campestris pv. campestris, UniProt Q8P9A6); details: read-out: dissociation constant (Kd)
Experimental: (§1) Fig 6 Arg^656 in the CA domain of RavS is a key residue for c-di-GMP binding. (a, b) c-di-GMP binds to the DHp-CA domain of RavS. PAS-A, PAS-B and DHp-CA in (a), and DHp and CA domains of RavS in (b), were purified and the interaction with c-di-GMP was measured by MST. Each assay was repeated three times. Standard deviations are shown. (c) Molecular docking model of the interaction between c-di-GMP and DHp-CA of RavS. c-di-GMP is shown as a ball-and-stick model and DHp-CA is shown in ribbon representation. (d) Schematic view of the predicted docking site between c-di-GMP and DHp-CA. Potential hydrogen bonds are indicated as blue dashed lines. Autodock software was used to predict the interaction. (e) Effect of amino acid substitutions on RavS–c-di-GMP binding. Ten recombinant proteins of the DHp-CA region, each containing a substitution of a putative essential residue involved in c-di-GMP binding, were used in the MST assay to quantify the Kd value of RavS–c-di-GMP binding. fl-c-di-GMP was used in the MST assay. Each experiment was repeated three times. […] The reactions were terminated with 5× SDS loading buffer and the products were separated by 12% SDS-PAGE, exposed to a phosphor screen and analysed by Typhoon FLA7000. […]
(§2) The interaction between c-di-GMP nucleotides and various proteins was measured by using MST with a fluorescein-labelled c-di-GMP (2′-Fluo-AHC-c-di-GMP, abbreviated as fl-c-di-GMP; 2′-Fluo-AHC-c-di-AMP, fl-c-di-AMP; 2′-Fluo-AHC-cGMP, fl-cGMP; Biolog, Germany). These chemicals contain carboxyfluorescein that has excitation and emission wavelengths of 497 nm and 520 nm, respectively, which can be detected directly by a MST instrument. […] Fluorescence intensity due to thermophoresis was recorded using the blue channel optics of the instrument (λex = 470 ± 15 nm, λem = 520 ± 10 nm) during a 30 s period of infrared laser heating at 80% of the maximum laser power, followed by a 5 s cooling period. […]

CA domain of RavS = CA domain of RavS (Xanthomonas campestris pv. campestris, UniProt Q8P9A6); details: read-out: dissociation constant (Kd)
Experimental: as §1, §2

DHp domain of RavS = target: DHp domain of RavS; set-up: species or system Xanthomonas campestris pv. campestris; details: DHp region
Experimental: as §1, §2

PAS-B of RavS = target: PAS-B of RavS; set-up: species or system Xanthomonas campestris pv. campestris; details: PAS-B region
Experimental: as §1, §2

PAS-A of RavS = target: PAS-A of RavS; set-up: species or system Xanthomonas campestris pv. campestris; details: PAS-A region
Experimental: as §1, §2

DHp-CA^R656A = target: T1, DHp-CA^R656A (Xanthomonas campestris pv. campestris, UniProt Q8P9A6, R656A); details: compared with DHp-CA protein
T1 sequence (Q8P9A6 464-697 R656A): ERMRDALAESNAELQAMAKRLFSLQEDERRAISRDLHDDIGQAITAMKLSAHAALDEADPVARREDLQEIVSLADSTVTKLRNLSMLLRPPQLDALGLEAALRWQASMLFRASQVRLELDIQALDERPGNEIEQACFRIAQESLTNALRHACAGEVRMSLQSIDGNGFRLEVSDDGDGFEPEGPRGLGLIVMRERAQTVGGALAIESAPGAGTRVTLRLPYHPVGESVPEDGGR
Experimental: as §1, §2

SMILES	Kd (DHp-CA domain of RavS)	Kd (CA domain of RavS)	binding (MST) (DHp domain of RavS)	binding (MST) (PAS-B of RavS)	binding (MST) (PAS-A of RavS)	fold decrease in binding affinity (DHp-CA^R656A)
Nc1nc2c(ncn2[C@@H]2O[C@@H]3COP(=O)(O)O[C@H]4[C@@H](OC(=O)NCCCCCCNC(=O)c5ccc6c(c5)C(=O)OC65c6ccc(O)cc6Oc6cc(O)ccc65)[C@H](n5cnc6c(=O)[nH]c(N)nc65)O[C@@H]4COP(=O)(O)O[C@H]3[C@H]2O)c(=O)[nH]1 [fl-c-di-GMP, 2′-Fluo-AHC-c-di-GMP]	6.25 ± 0.8 µM	17.1 ± 3.78 µM	no binding	no binding	no binding	–
Nc1nc2c(ncn2[C@@H]2O[C@@H]3COP(=O)(O)O[C@H]4[C@@H](O)[C@H](n5cnc6c(=O)[nH]c(N)nc65)O[C@@H]4COP(=O)(O)O[C@H]3[C@H]2O)c(=O)[nH]1 [c-di-GMP, Cyclic di-GMP]	–	–	–	–	–	10 fold
